{
  "source": "patent US6355799B1",
  "about": "“Substituted benzene compounds, process for their preparation, and herbicidal and defoliant compositions containing them” (ISK Americas Incorporated, priority 1997, dated 2002)",
  "type_in_all_cases": "in vivo",
  "key": {"[1]": {"test_system": "redroot pigweed (Amaranthus retroflexus, AMARE)", "experiment": "Pre-emerge test, greenhouse herbicide activity screening", "settings": "pre-emerge, phytotoxicity rating 0-100 at 14 days after application", "outline": "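Herbicidal damage is scored 0 (none) to 100 (complete plant death) two weeks after a simulated field spray. Rates span 15–1000 g ai/ha, delivered in acetone at 187 l/ha. For post-emergence treatments, plants have 2–3 leaves and the spray carries 0.25% v/v non-ionic surfactant.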"}, "[2]": {"test_system": "velvetleaf (Abutilon theophrasti, ABUTH)", "experiment": "Post-emerge test, greenhouse herbicide activity screening", "settings": "post-emerge, phytotoxicity rating 0-100 at 14 days after application", "outline": "(§1)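 Fourteen days after spraying, crop and weed injury was graded visually from 0, no effect, to 100, every plant dead. Test substances were dissolved in acetone and applied at 15–1000 g ai/ha with a flat-fan nozzle. Application was either pre-emergence, one day after sowing, or post-emergence at the 2–3 leaf stage.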"}, "[3]": {"test_system": "johnsongrass (Sorghum halepense, SORHA)", "experiment": "Post-emerge test, greenhouse herbicide activity screening", "settings": "post-emerge, phytotoxicity rating 0-100 at 14 days after application", "outline": "as §1"}, "[4]": {"test_system": "redroot pigweed (Amaranthus retroflexus, AMARE)", "experiment": "Post-emerge test, greenhouse herbicide activity screening", "settings": "post-emerge, phytotoxicity rating 0-100 at 14 days after application", "outline": "as §1"}, "[5]": {"test_system": "barnyardgrass (Echinochloa crus-galli, ECHCG)", "experiment": "Post-emerge test, greenhouse herbicide activity screening", "settings": "post-emerge, phytotoxicity rating 0-100 at 14 days after application", "outline": "as §1"}, "[6]": {"test_system": "lambsquarters (Chenopodium album, CHEAL)", "experiment": "Post-emerge test, greenhouse herbicide activity screening", "settings": "post-emerge, phytotoxicity rating 0-100 at 14 days after application", "outline": "as §1"}, "[7]": {"test_system": "ivyleaf morningglory (Ipomoea hederacea, IPOHE)", "experiment": "Post-emerge test, greenhouse herbicide activity screening", "settings": "post-emerge, phytotoxicity rating 0-100 at 14 days after application", "outline": "as §1"}, "[8]": {"test_system": "green foxtail (Setaria viridis, SETVI)", "experiment": "Post-emerge test, greenhouse herbicide activity screening", "settings": "post-emerge, phytotoxicity rating 0-100 at 14 days after application", "outline": "as §1"}, "[9]": {"test_system": "sicklepod (Cassia obtusifolia, CASOB)", "experiment": "Post-emerge test, greenhouse herbicide activity screening", "settings": "post-emerge, phytotoxicity rating 0-100 at 14 days after application", "outline": "as §1"}, "[10]": {"test_system": "large crabgrass (Digitaria sanguinalis, DIGSA)", "experiment": "Post-emerge test, greenhouse herbicide activity screening", "settings": "post-emerge, phytotoxicity rating 0-100 at 14 days after application", "outline": "as §1"}, "[11]": {"test_system": "field corn (Zea mays L., var. Dekalb 535, CORN)", "experiment": "Pre-emerge test, crop safety", "settings": "crop damage, pre-emerge, phytotoxicity rating 0-100 at 14 days after application", "outline": "(§2)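 Visual ratings on a 0-100 scale (0 no damage, 100 all plants dead) were taken at 14 days after treatment. Rates of 15-1000 g ai/ha in acetone, 187 l/ha, were sprayed onto soil one day after planting (pre-emerge) or onto 2-3 leaf plants with 0.25% v/v surfactant (post-emerge).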"}, "[12]": {"test_system": "upland rice (Oryza sp., var. Tebonnet, RICE)", "experiment": "Pre-emerge test, crop safety", "settings": "crop damage, pre-emerge, phytotoxicity rating 0-100 at 14 days after application", "outline": "as §2"}, "[13]": {"test_system": "velvetleaf (Abutilon theophrasti, ABUTH)", "experiment": "Pre-emerge test, greenhouse herbicide activity screening", "settings": "pre-emerge, phytotoxicity rating 0-100 at 14 days after application", "outline": "(§3)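 Compounds in acetone were track-sprayed at 15-1000 g ai/ha (187 l/ha) on sandy loam pots: pre-emerge one day after seeding, post-emerge at 2-3 leaf stage with 0.25% v/v non-ionic surfactant. Phytotoxicity was rated 14 days later on a 0 (no damage) to 100 (complete death) scale.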"}, "[14]": {"test_system": "johnsongrass (Sorghum halepense, SORHA)", "experiment": "Pre-emerge test, greenhouse herbicide activity screening", "settings": "pre-emerge, phytotoxicity rating 0-100 at 14 days after application", "outline": "as §3"}, "[15]": {"test_system": "common ragweed (Ambrosia artemisizfolia L., AMBEL)", "experiment": "Pre-emerge test, greenhouse herbicide activity screening", "settings": "pre-emerge, phytotoxicity rating 0-100 at 14 days after application", "outline": "as §3"}, "[16]": {"test_system": "barnyardgrass (Echinochloa crus-galli, ECHCG)", "experiment": "Pre-emerge test, greenhouse herbicide activity screening", "settings": "pre-emerge, phytotoxicity rating 0-100 at 14 days after application", "outline": "as §3"}, "[17]": {"test_system": "lambsquarters (Chenopodium album, CHEAL)", "experiment": "Pre-emerge test, greenhouse herbicide activity screening", "settings": "pre-emerge, phytotoxicity rating 0-100 at 14 days after application", "outline": "as §3"}, "[18]": {"test_system": "ivyleaf morningglory (Ipomoea hederacea, IPOHE)", "experiment": "Pre-emerge test, greenhouse herbicide activity screening", "settings": "pre-emerge, phytotoxicity rating 0-100 at 14 days after application", "outline": "as §3"}, "[19]": {"test_system": "green foxtail (Setaria viridis, SETVI)", "experiment": "Pre-emerge test, greenhouse herbicide activity screening", "settings": "pre-emerge, phytotoxicity rating 0-100 at 14 days after application", "outline": "as §3"}, "[20]": {"test_system": "sicklepod (Cassia obtusifolia, CASOB)", "experiment": "Pre-emerge test, greenhouse herbicide activity screening", "settings": "pre-emerge, phytotoxicity rating 0-100 at 14 days after application", "outline": "as §3"}, "[21]": {"test_system": "large crabgrass (Digitaria sanguinalis, DIGSA)", "experiment": "Pre-emerge test, greenhouse herbicide activity screening", "settings": "pre-emerge, phytotoxicity rating 0-100 at 14 days after application", "outline": "as §3"}, "[22]": {"test_system": "field corn (Zea mays L., var. Dekalb 535, CORN)", "experiment": "Post-emerge test, crop safety", "settings": "post-emerge, crop damage rating 0-100 at 14 days after application", "outline": "as §3"}, "[23]": {"test_system": "upland rice (Oryza sp., var. Tebonnet, RICE)", "experiment": "Post-emerge test, crop safety", "settings": "post-emerge, crop damage rating 0-100 at 14 days after application", "outline": "as §3"}},
  "data": [
    {"compound": "COc1c(Cl)cc(F)c(-n2ncc(C(F)(F)F)c(C)c2=O)c1NC(=O)c1ccc2ccccc2c1", "note": "[11-13]", "values": [
      {"measurement": "Pre-emerge Herbicidal Activity AMARE", "setting": "[1]; rate 63 g ai/ha", "value": 100},
      {"measurement": "Pre-emerge Herbicidal Activity AMARE", "setting": "[1]; rate 250 g ai/ha", "value": 10},
      {"measurement": "Post-emerge Herbicidal Activity ABUTH", "setting": "[2]; 63 g ai/ha", "value": 95},
      {"measurement": "Post-emerge Herbicidal Activity ABUTH", "setting": "[2]; 250 g ai/ha", "value": 100},
      {"measurement": "Post-emerge Herbicidal Activity SORHA", "setting": "[3]; 63 g ai/ha", "value": 0},
      {"measurement": "Post-emerge Herbicidal Activity SORHA", "setting": "[3]; 250 g ai/ha", "value": 15},
      {"measurement": "Post-emerge Herbicidal Activity AMARE", "setting": "[4]; 63 g ai/ha", "value": 100},
      {"measurement": "Post-emerge Herbicidal Activity AMARE", "setting": "[4]; 250 g ai/ha", "value": 100},
      {"measurement": "Post-emerge Herbicidal Activity ECHCG", "setting": "[5]; 63 g ai/ha", "value": 65},
      {"measurement": "Post-emerge Herbicidal Activity ECHCG", "setting": "[5]; 250 g ai/ha", "value": 55},
      {"measurement": "Post-emerge Herbicidal Activity CHEAL", "setting": "[6]; 63 g ai/ha", "value": 100},
      {"measurement": "Post-emerge Herbicidal Activity CHEAL", "setting": "[6]; 250 g ai/ha", "value": 100},
      {"measurement": "Post-emerge Herbicidal Activity IPOHE", "setting": "[7]; 63 g ai/ha", "value": 98},
      {"measurement": "Post-emerge Herbicidal Activity IPOHE", "setting": "[7]; 250 g ai/ha", "value": 98},
      {"measurement": "Post-emerge Herbicidal Activity SETVI", "setting": "[8]; 63 g ai/ha", "value": 55},
      {"measurement": "Post-emerge Herbicidal Activity SETVI", "setting": "[8]; 250 g ai/ha", "value": 40},
      {"measurement": "Post-emerge Herbicidal Activity CASOB", "setting": "[9]; 63 g ai/ha", "value": 85},
      {"measurement": "Post-emerge Herbicidal Activity CASOB", "setting": "[9]; 250 g ai/ha", "value": 85},
      {"measurement": "Post-emerge Herbicidal Activity DIGSA", "setting": "[10]; 63 g ai/ha", "value": 40},
      {"measurement": "Post-emerge Herbicidal Activity DIGSA", "setting": "[10]; 250 g ai/ha", "value": 60},
      {"measurement": "Pre-emerge Herbicidal Activity CORN", "setting": "[11]; rate 63 g ai/ha", "value": 0},
      {"measurement": "Pre-emerge Herbicidal Activity CORN", "setting": "[11]; rate 250 g ai/ha", "value": 0},
      {"measurement": "Pre-emerge Herbicidal Activity RICE", "setting": "[12]; rate 63 g ai/ha", "value": 0},
      {"measurement": "Pre-emerge Herbicidal Activity RICE", "setting": "[12]; rate 250 g ai/ha", "value": 15},
      {"measurement": "Pre-emerge Herbicidal Activity ABUTH", "setting": "[13]; rate 63 g ai/ha", "value": 95},
      {"measurement": "Pre-emerge Herbicidal Activity ABUTH", "setting": "[13]; rate 250 g ai/ha", "value": 100},
      {"measurement": "Pre-emerge Herbicidal Activity SORHA", "setting": "[14]; rate 63 g ai/ha", "value": 0},
      {"measurement": "Pre-emerge Herbicidal Activity SORHA", "setting": "[14]; rate 250 g ai/ha", "value": 40},
      {"measurement": "Pre-emerge Herbicidal Activity AMBEL", "setting": "[15]; rate 63 g ai/ha", "value": 30},
      {"measurement": "Pre-emerge Herbicidal Activity AMBEL", "setting": "[15]; rate 250 g ai/ha", "value": 60},
      {"measurement": "Pre-emerge Herbicidal Activity ECHCG", "setting": "[16]; rate 63 g ai/ha", "value": 30},
      {"measurement": "Pre-emerge Herbicidal Activity ECHCG", "setting": "[16]; rate 250 g ai/ha", "value": 80},
      {"measurement": "Pre-emerge Herbicidal Activity CHEAL", "setting": "[17]; rate 63 g ai/ha", "value": 100},
      {"measurement": "Pre-emerge Herbicidal Activity CHEAL", "setting": "[17]; rate 250 g ai/ha", "value": 100},
      {"measurement": "Pre-emerge Herbicidal Activity IPOHE", "setting": "[18]; rate 63 g ai/ha", "value": 65},
      {"measurement": "Pre-emerge Herbicidal Activity IPOHE", "setting": "[18]; rate 250 g ai/ha", "value": 80},
      {"measurement": "Pre-emerge Herbicidal Activity SETVI", "setting": "[19]; rate 63 g ai/ha", "value": 70},
      {"measurement": "Pre-emerge Herbicidal Activity SETVI", "setting": "[19]; rate 250 g ai/ha", "value": 100},
      {"measurement": "Pre-emerge Herbicidal Activity CASOB", "setting": "[20]; rate 63 g ai/ha", "value": 0},
      {"measurement": "Pre-emerge Herbicidal Activity CASOB", "setting": "[20]; rate 250 g ai/ha", "value": 85},
      {"measurement": "Pre-emerge Herbicidal Activity DIGSA", "setting": "[21]; rate 63 g ai/ha", "value": 60},
      {"measurement": "Pre-emerge Herbicidal Activity DIGSA", "setting": "[21]; rate 250 g ai/ha", "value": 100},
      {"measurement": "Post-emerge Herbicidal Activity CORN", "setting": "[22]; 63 g ai/ha", "value": 45},
      {"measurement": "Post-emerge Herbicidal Activity CORN", "setting": "[22]; 250 g ai/ha", "value": 45},
      {"measurement": "Post-emerge Herbicidal Activity RICE", "setting": "[23]; 63 g ai/ha", "value": 45},
      {"measurement": "Post-emerge Herbicidal Activity RICE", "setting": "[23]; 250 g ai/ha", "value": 65}
    ]}
  ]
}
